The results in this text go back to patent US12202832B2, “Heterocyclic compounds having a calcium-sensing receptor antagonistic activity” (TAKEDA PHARMACEUTICAL COMPANY LIMITED, priority 2017, dated 2025).

In this assay the target is T1, human CaSR (Homo sapiens, UniProt P41180).
T1 construct: expressed in transfected cells; host or cells: CHO cells
T1 sequence (P41180 20-1078): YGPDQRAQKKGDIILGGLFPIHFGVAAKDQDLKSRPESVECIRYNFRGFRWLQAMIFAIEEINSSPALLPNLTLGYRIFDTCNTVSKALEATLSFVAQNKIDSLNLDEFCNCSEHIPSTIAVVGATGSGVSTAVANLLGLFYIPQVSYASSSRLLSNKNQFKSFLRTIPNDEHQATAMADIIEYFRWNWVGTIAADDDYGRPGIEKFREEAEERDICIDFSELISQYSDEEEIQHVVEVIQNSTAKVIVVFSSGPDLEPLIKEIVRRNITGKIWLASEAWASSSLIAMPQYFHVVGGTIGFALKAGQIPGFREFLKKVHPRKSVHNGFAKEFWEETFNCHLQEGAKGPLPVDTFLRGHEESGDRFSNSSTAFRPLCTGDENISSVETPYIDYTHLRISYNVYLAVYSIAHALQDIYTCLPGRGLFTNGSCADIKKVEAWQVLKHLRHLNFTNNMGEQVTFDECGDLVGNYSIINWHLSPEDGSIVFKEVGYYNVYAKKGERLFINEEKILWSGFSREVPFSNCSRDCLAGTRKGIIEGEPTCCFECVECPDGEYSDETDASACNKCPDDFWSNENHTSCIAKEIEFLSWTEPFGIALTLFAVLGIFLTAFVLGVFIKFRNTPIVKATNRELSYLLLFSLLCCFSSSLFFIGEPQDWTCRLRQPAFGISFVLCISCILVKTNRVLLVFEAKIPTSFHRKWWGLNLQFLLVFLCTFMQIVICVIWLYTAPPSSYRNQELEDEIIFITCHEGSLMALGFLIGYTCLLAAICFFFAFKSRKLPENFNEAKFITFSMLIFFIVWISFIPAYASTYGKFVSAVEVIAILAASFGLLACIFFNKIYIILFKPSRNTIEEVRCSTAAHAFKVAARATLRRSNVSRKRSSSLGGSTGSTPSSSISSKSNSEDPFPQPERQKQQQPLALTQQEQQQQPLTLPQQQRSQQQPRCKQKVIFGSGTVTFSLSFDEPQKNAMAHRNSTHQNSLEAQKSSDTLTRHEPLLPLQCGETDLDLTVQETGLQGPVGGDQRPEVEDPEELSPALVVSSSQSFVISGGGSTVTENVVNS
The assay is described as follows: Human CaSR antagonist activity (NFAT-Luciferase reporter in CHO cells). The settings on record: CaCl2 final 1.3 mM, 100% = reference antagonist at 10 μM; for inhibition at 3.3 µM: CHO, read-out: Inhibition rate (%) at 3.3 μM. Format: cell-based. How it is done: CaSR antagonist activity measurement was performed using Bright-Glo Luciferase assay system (Promega Corporation). CHO cells in which human CaSR and NFAT-Luciferase reporter gene were forcibly expressed were suspended in MEM alpha (Wako Pure Chemical Industries, Ltd.) containing 10% dialyzed serum (HyClone). The cells in suspension was seeded in 384-well white plate (Corning) at 10,000/20 μL/well, and cultured in an incubator of 37° C., 5% CO2 for one day. A diluent of Test compound was prepared with assay buffer (MEM alpha containing 10 mM HEPES (Life Technologies) and 10% dialysis serum). The diluent was added to the plate at 5 μL/well and allowed to stand at 37° C. for 10 minutes. Further, a diluent of 7.8 mM CaCl2 prepared with assay buffer (final concentration 1.3 mM) was added at 5 μl/well and allowed to stand in an incubator of 37° C., 5% CO2 for 2 hours. Bright-Glo reagents (Promega Corporation) were added at 10 μL/well, and the obtained mixture was stirred for 5 minutes, and then luminescence intensity was measured using Multi-label reader Envision (PerkinElmer, Inc.). The activity (%) of the test compound was calculated with the definitions in which the luminescence intensity when DMSO is added in place of the test compound is defined as 0% inhibition; and the luminescence intensity when (5R)—N-(1-ethyl-1-(4-ethylphenyl)propyl)-2,7,7-trimethyl-5-phenyl-4,5,6,7-tetrahydropyrazolo[1,5-a] Pyrimidine-3-carboxamide at final concentration of 10 μM is added is defined as 100% inhibition.
In general terms: A reporter such as luciferase makes a cellular process visible.

Take `CCc1ccc(C(CC)(NC(=O)c2cnn3c2N[C@@H](c2ccccc2)CC3(C)C)C(=O)N[C@@H](C)C(N)=O)cc1` (stereo partly drawn) [Example 2, (5R)-N-(1-(((2S)-1-Amino-1-oxopropan-2-yl)amino)-2-(4-ethylphenyl)-1-oxobutan-2-yl)-7,7-dimethyl-5-phenyl-4,5,6,7-tetrahydropyrazolo[1,5-a]pyrimidine-3-carboxamide]: the inhibition (commonly the change of the read-out against control, counted positive when it falls) at 3.3 µM turned out to be 102%.
On the same count and under the same terms, the same measure for `CCc1ccc([C@](CC)(NC(=O)c2c(C)nn3c2N[C@@H](c2ccccc2)CC3(C)C)C(=O)N[C@@H](C)C(N)=O)cc1` [Example 3, (5R)-N-((2S)-1-(((2S)-1-Amino-1-oxopropan-2-yl)amino)-2-(4-ethylphenyl)-1-oxobutan-2-yl)-2,7,7-trimethyl-5-phenyl-4,5,6,7-tetrahydropyrazolo[1,5-a]pyrimidine-3-carboxamide]: 94%.
Same read-out and setting: the same measure for `CCc1ccc(C(C)(NC(=O)c2cnn3c2N[C@@H](c2ccccc2)CC3(C)C)C(=O)N[C@@H](CC(C)C)C(N)=O)cc1` (stereo partly drawn) [Example 9, (5R)-N-(1-(((2S)-1-Amino-4-methyl-1-oxopentan-2-yl)amino)-2-(4-ethylphenyl)-1-oxopropan-2-yl)-7,7-dimethyl-5-phenyl-4,5,6,7-tetrahydropyrazolo[1,5-a]pyrimidine-3-carboxamide]: 98%.
On the same count and under the same terms, with `CCc1ccc(C(CC)(NC(=O)c2cnn3c2N[C@@H](c2ccccc2)CC3(C)C)C(=O)N[C@H](C(N)=O)[C@@H](C)CC)cc1` (stereo partly drawn) [Example 10, (5R)-N-(1-(((2S,3S)-1-Amino-3-methyl-1-oxopentan-2-yl)amino)-2-(4-ethylphenyl)-1-oxobutan-2-yl)-7,7-dimethyl-5-phenyl-4,5,6,7-tetrahydropyrazolo[1,5-a]pyrimidine-3-carboxamide] the figure was 100%; with `CCc1ccc(C(CC)(NC(=O)c2cnn3c2N[C@@H](c2ccccc2)CC3(C)C)C(=O)N[C@@H](CC(C)C)C(N)=O)cc1` (stereo partly drawn) [Example 14, (5R)-N-(1-(((2S)-1-Amino-4-methyl-1-oxopentan-2-yl)amino)-2-(4-ethylphenyl)-1-oxobutan-2-yl)-7,7-dimethyl-5-phenyl-4,5,6,7-tetrahydropyrazolo[1,5-a]pyrimidine-3-carboxamide], 98%.
Turning to `CCc1ccc(C(CC)(NC(=O)c2cnn3c2N[C@@H](c2ccccc2)CC3(C)C)C(=O)N[C@@H](CC(C)C)C(N)=O)cc1` (stereo partly drawn) [Example 15, (5R)-N-(1-(((2S)-1-Amino-4-methyl-1-oxopentan-2-yl)amino)-2-(4-ethylphenyl)-1-oxobutan-2-yl)-7,7-dimethyl-5-phenyl-4,5,6,7-tetrahydropyrazolo[1,5-a]pyrimidine-3-carboxamide], the “Inhibition rate (%) at 3.3 μM” value stood at 101%.
Same read-out and setting: with `CCc1ccc(C(CC)(NC(=O)c2cnn3c2N[C@@H](c2ccccc2)CC3(C)C)C(=O)N[C@@H](CC(C)C)C(N)=O)cc1` (stereo partly drawn) [Example 16, (5R)-N-(1-(((2S)-1-Amino-4-methyl-1-oxopentan-2-yl)amino)-2-(4-ethylphenyl)-1-oxobutan-2-yl)-7,7-dimethyl-5-phenyl-4,5,6,7-tetrahydropyrazolo[1,5-a]pyrimidine-3-carboxamide] the figure was 105%.
As for `CCc1ccc(C(CC)(NC(=O)c2cnn3c2N[C@@H](c2ccccc2)CC3(C)C)C(=O)NCC(N)=O)cc1` (stereo partly drawn) [Example 17, (5R)-N-(1-((2-Amino-2-oxoethyl)amino)-2-(4-ethylphenyl)-1-oxobutan-2-yl)-7,7-dimethyl-5-phenyl-4,5,6,7-tetrahydropyrazolo[1,5-a]pyrimidine-3-carboxamide], the inhibition at 3.3 µM was 104%.
`CCc1ccc(C(CC)(NC(=O)c2cnn3c2N[C@@H](c2ccccc2)CC3(C)C)C(=O)N[C@@H](Cc2ccccc2)C(N)=O)cc1` (stereo partly drawn) [Example 18]: the inhibition at 3.3 µM came out at 101%.
The same measure, in the same setting: the same measure for `CCc1ccc(C(CC)(NC(=O)c2cnn3c2N[C@@H](c2ccccc2)CC3(C)C)C(=O)N[C@@H](CCCCN)C(N)=O)cc1` (stereo partly drawn) [Example 20, (5R)-N-(1-(((2S)-1,6-Diamino-1-oxohexan-2-yl)amino)-2-(4-ethylphenyl)-1-oxobutan-2-yl)-7,7-dimethyl-5-phenyl-4,5,6,7-tetrahydropyrazolo[1,5-a]pyrimidine-3-carboxamide]: 101%; for `CCc1ccc([C@@](CC)(NC(=O)c2cnn3c2N[C@@H](c2ccccc2)CC3(C)C)C(=O)N[C@H](C(N)=O)[C@@H](C)O)cc1` [Example 21, (5R)-N-((2R)-1-(((2S,3R)-1-Amino-3-hydroxy-1-oxobutan-2-yl)amino)-2-(4-ethylphenyl)-1-oxobutan-2-yl)-7,7-dimethyl-5-phenyl-4,5,6,7-tetrahydropyrazolo[1,5-a]pyrimidine-3-carboxamide]: 103%.
Same read-out and setting: with `CCc1ccc(C(CC)(NC(=O)c2cnn3c2N[C@@H](c2ccccc2)CC3(C)C)C(=O)N[C@H](C)C(N)=O)cc1` (stereo partly drawn) [Example 22, (5R)-N-(1-(((2R)-1-Amino-1-oxopropan-2-yl)amino)-2-(4-ethylphenyl)-1-oxobutan-2-yl)-7,7-dimethyl-5-phenyl-4,5,6,7-tetrahydropyrazolo[1,5-a]pyrimidine-3-carboxamide] the figure was 106%; with `CCc1ccc(C(CC)(NC(=O)c2cnn3c2N[C@@H](c2ccccc2)CC3(C)C)C(=O)N[C@@H](CO)C(N)=O)cc1` (stereo partly drawn) [Example 23, (5R)-N-(1-(((2S)-1-Amino-3-hydroxy-1-oxopropan-2-yl)amino)-2-(4-ethylphenyl)-1-oxobutan-2-yl)-7,7-dimethyl-5-phenyl-4,5,6,7-tetrahydropyrazolo[1,5-a]pyrimidine-3-carboxamide], 102%.
For `CCc1ccc(C(CC)(NC(=O)c2cnn3c2N[C@@H](c2ccccc2)CC3(C)C)C(=O)N[C@@H](CC(N)=O)C(N)=O)cc1` (stereo partly drawn) [Example 24], the inhibition at 3.3 µM worked out at 102%.
Take `CCc1ccc(C(CC)(NC(=O)c2cnn3c2N[C@@H](c2ccccc2)CC3(C)C)C(N)=O)cc1` (stereo partly drawn) [Example 26, (5R)-N-(1-Amino-2-(4-ethylphenyl)-1-oxobutan-2-yl)-7,7-dimethyl-5-phenyl-4,5,6,7-tetrahydropyrazolo[1,5-a]pyrimidine-3-carboxamide]: the inhibition at 3.3 µM is 106%.
On the same count and under the same terms, the same measure for `CCc1ccc(C(CC)(NC(=O)c2cnn3c2N[C@@H](c2ccccc2)CC3(C)C)C(=O)NC)cc1` (stereo partly drawn) [Example 29, (5R)-N-(2-(4-Ethylphenyl)-1-(methylamino)-1-oxobutan-2-yl)-7,7-dimethyl-5-phenyl-4,5,6,7-tetrahydropyrazolo[1,5-a]pyrimidine-3-carboxamide]: 103%; for `CCc1ccc(C(CC)(NC(=O)c2cnn3c2N[C@@H](c2ccccc2)CC3(C)C)C(=O)N(C)C)cc1` (stereo partly drawn) [Example 32, (5R)-N-(1-(Dimethylamino)-2-(4-ethylphenyl)-1-oxobutan-2-yl)-7,7-dimethyl-5-phenyl-4,5,6,7-tetrahydropyrazolo[1,5-a]pyrimidine-3-carboxamide]: 102%.
In the case of `CCc1ccc(C(CC)(NC(=O)c2cnn3c2N[C@@H](c2ccccc2)CC3(C)C)C(=O)N(C)C)cc1` (stereo partly drawn) [Example 33, (5R)-N-(1-(Dimethylamino)-2-(4-ethylphenyl)-1-oxobutan-2-yl)-7,7-dimethyl-5-phenyl-4,5,6,7-tetrahydropyrazolo[1,5-a]pyrimidine-3-carboxamide], the “Inhibition rate (%) at 3.3 μM” value was determined as 104%.
